The values that follow are results of earlier work, collected in patent publication US20210128676A1, “METHOD OF TREATING PATIENTS WITH H[…] TYPE 1 AND LOW MEAN ARTERIAL PRESSURE” (Mallinckrodt Hospital Products IP Unlimited Company, priority 2019, published 2021).

The structures appear in SMILES notation. Positions of bridges follow the written chain, without caps; N, C: chain ends. Residues, ends and D or L forms follow the SMILES beside them.

For this data set the following is noted: in vivo.

Regarding `NCCCC[C@H](NC(=O)[C@@H]1CCCN1C(=O)[C@@H]1CSSC[C@H](NC(=O)CNC(=O)CNC(=O)CN)C(=O)N[C@@H](Cc2ccc(O)cc2)C(=O)N[C@@H](Cc2ccccc2)C(=O)N[C@@H](CCC(N)=O)C(=O)N[C@@H](CC(N)=O)C(=O)N1)C(=O)NCC(N)=O` [Terlipressin, N—[N—(N-glycylglycyl)glycyl]-8-L-lysinevasopressin] (H-GGGCYFQNCPKG-NH2; disulfide 4-9 (inferred)), the half-life (usually how long it takes for the measured level to halve) was 6 h.

As to `NC(=O)CC[C@@H]1NC(=O)[C@H](Cc2ccccc2)NC(=O)[C@H](Cc2ccc(O)cc2)NC(=O)[C@@H](N)CSSC[C@@H](C(=O)N2CCC[C@H]2C(=O)N[C@@H](CCCN=C(N)N)C(=O)NCC(N)=O)NC(=O)[C@H](CC(N)=O)NC1=O` [vasopressin], the duration of action is 30 to 60 min and the half-life was 0.1 h.
